Values quoted from earlier work, collected in paper PMC9841982 (ACS Medicinal Chemistry Letters, 2022).

Tests used:
murine pancreatic islets = details: free TAK-242, murine islet transplantation
[1] = authors' earlier work with TAK-242

sulfonamide bond stability [1]: relatively stable
Structure (SMILES): CCOC(=O)C1=CCCC[C@H]1S(=O)(=O)Nc1ccc(F)cc1Cl [TAK-242, ethyl (6R)-6-[N-(2-Chloro-4-fluorophenyl)sulfamoyl]cyclohex-1-ene-1-carboxylate]
effect of free drug on islets and transplant outcome (murine pancreatic islets): reduced sterile inflammation-mediated stress in islets during isolation and promoted successful transplant outcomes
